These results are taken from patent US20200262877A1, “ION CHANNEL-BINDING PEPTIDES AND METHODS OF USE THEREOF” (priority 2017, published 2020).

pIC50: −log10 of the molar value. Where a SMILES comes first, the peptide text is derived from it. Bridges are numbered along the chain shown (N, C = ends).

One series concerns panel of 20 ion channels. Type of series: cell-based. To be noted: potassium channels of the panel; 0.2 or 20 μM; FIG. 2. The method, then:
This example describes a method for assaying ion channel activity in cells.
Peptides were screened in duplicate at final concentrations of 20 μM and 200 nM, as determined by amino acid analysis, and diluted into HEPES buffered physiological saline (HBPS). HEK293 or CHO cells from the American Type Culture Collection (ATCC) were transfected with the appropriate ion channel before use. HEK293 cells were grown in Dulbecco's Modified Eagle Medium/Nutrient Mixture F-12, and CHO cells were cultured in Ham's F-12 media. All cultures were supplemented with 10% fetal bovine serum, 100 U/ml penicillin G, 100 μg/ml streptomycin sulfate, and the appropriate selection antibiotics. Prior to use, cells were washed twice with Hank's Balanced Salt Solution, and treated with Accutase cell detachment solution (Sigma-Aldrich). Cells were then washed. Peptides and controls were incubated with cells for at least five minutes.
Percent inhibition was defined as: (1-(Ipeptide/Icontrol))×100%).
Percent values were calculated using the following formula: % activation=(IPeptide/Icontrol)×100%, where IPeptide is the current produced by co-application a peptide with agonist, and Icontrol refers to the current produced by stimulation in control. Control used for each ion channel is the reference compound matched to a particular channel, as illustrated in TABLE 10 below.

The target in the next series is T1, Kv1.1 (Homo sapiens, UniProt Q09470).
T1 construct: host or cells: HEK293 or CHO
T1 sequence (Q09470 whole entry): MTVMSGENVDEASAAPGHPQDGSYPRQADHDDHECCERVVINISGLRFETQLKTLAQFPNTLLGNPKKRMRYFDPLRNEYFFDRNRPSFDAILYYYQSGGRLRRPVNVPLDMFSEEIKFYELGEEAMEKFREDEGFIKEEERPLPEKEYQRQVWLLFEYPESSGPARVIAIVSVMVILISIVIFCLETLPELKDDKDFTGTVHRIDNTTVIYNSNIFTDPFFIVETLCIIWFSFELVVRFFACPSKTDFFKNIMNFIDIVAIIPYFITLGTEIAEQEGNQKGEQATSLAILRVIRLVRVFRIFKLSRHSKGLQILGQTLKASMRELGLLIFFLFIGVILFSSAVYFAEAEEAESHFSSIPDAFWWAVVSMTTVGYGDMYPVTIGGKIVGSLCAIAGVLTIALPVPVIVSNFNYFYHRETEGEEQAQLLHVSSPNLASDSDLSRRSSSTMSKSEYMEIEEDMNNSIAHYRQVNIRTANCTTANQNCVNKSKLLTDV
Briefly: cell-based. The conditions noted are these: Kv1.1; peptide at 20 μM; percentage of control, 100% = no change; read-out: Ion channel activity (ion channel inhibition). Type of series: cell-based. The method in brief: (§1)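 Peptides were tested in duplicate at final 20 μM and 200 nM, with concentration set by amino acid analysis, in HEPES-buffered saline. They were applied for at least 5 min to HEK293 or CHO cells transfected with each channel. Currents were expressed as % inhibition, 1-(Ipeptide/Icontrol)×100, or % activation, Ipeptide/Icontrol×100, against a channel-matched reference compound.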

Series [1] concerns the target T2, Kv1.3 (Homo sapiens, UniProt P22001).
T2 construct: host or cells: HEK293 or CHO
The experiment in a line: cell-based. Type of series: cell-based. The method in brief: as §1

For series [2], the target named is Nav1.5 cardiac sodium channel (human SCN5A gene) (Homo sapiens, UniProt Q14524). Briefly: in vitro.
Sequence of Nav1.5 cardiac sodium channel (human SCN5A gene) (Q14524 whole entry): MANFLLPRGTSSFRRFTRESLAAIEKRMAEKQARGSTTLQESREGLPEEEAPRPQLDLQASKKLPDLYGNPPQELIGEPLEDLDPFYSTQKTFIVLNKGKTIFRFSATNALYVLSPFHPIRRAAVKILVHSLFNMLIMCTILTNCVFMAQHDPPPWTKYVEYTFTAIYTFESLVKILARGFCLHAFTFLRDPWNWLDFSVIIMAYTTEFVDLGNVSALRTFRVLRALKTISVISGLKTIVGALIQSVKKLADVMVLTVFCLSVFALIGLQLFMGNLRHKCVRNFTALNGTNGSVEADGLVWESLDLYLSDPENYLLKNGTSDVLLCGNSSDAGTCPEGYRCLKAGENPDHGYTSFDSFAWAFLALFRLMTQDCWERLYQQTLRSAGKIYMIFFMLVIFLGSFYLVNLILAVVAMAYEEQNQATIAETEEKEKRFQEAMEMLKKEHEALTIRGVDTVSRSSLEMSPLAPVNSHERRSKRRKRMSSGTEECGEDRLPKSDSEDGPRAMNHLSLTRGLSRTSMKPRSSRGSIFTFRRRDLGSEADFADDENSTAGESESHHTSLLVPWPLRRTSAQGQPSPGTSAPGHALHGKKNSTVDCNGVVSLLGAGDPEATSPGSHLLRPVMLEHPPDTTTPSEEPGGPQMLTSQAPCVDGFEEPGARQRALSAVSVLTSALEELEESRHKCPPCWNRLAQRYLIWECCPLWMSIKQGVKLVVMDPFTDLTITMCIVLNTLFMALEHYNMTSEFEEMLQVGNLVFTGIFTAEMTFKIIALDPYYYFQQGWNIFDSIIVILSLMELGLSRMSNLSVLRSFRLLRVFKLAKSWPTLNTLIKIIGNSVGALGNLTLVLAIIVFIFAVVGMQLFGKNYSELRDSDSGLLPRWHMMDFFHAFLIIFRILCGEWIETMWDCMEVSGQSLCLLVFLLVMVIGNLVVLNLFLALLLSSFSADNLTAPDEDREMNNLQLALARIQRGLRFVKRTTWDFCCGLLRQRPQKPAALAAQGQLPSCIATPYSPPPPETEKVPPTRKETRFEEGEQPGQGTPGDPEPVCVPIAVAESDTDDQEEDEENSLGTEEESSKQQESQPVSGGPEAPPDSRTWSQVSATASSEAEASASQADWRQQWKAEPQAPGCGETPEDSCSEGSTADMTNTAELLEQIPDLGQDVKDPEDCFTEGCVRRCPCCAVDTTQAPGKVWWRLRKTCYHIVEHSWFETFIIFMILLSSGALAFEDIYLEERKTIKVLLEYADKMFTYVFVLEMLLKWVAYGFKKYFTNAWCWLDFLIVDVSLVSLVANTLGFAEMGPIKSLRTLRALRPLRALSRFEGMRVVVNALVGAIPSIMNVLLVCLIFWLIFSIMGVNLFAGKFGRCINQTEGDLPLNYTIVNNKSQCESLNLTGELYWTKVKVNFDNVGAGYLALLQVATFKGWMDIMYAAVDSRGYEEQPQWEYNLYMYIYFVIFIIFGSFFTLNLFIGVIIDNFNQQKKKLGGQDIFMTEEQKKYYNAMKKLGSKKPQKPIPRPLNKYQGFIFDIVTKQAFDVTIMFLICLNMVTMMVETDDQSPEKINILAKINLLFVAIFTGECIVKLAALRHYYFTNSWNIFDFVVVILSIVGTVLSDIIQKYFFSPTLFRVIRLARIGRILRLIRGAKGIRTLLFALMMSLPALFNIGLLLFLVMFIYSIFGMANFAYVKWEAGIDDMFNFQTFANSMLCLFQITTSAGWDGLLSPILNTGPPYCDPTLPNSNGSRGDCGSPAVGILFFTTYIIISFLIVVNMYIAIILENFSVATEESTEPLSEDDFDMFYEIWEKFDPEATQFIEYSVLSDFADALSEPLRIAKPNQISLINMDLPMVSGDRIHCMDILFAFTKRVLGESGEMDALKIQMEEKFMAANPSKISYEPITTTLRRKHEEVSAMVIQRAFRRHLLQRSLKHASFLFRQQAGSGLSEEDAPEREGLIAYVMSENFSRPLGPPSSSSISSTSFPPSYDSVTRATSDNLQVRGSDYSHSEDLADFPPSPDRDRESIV
Series [3] has as its target T2, Kv1.3. To be noted: prior reports; cited from earlier work.

T2 sequence (P22001 whole entry): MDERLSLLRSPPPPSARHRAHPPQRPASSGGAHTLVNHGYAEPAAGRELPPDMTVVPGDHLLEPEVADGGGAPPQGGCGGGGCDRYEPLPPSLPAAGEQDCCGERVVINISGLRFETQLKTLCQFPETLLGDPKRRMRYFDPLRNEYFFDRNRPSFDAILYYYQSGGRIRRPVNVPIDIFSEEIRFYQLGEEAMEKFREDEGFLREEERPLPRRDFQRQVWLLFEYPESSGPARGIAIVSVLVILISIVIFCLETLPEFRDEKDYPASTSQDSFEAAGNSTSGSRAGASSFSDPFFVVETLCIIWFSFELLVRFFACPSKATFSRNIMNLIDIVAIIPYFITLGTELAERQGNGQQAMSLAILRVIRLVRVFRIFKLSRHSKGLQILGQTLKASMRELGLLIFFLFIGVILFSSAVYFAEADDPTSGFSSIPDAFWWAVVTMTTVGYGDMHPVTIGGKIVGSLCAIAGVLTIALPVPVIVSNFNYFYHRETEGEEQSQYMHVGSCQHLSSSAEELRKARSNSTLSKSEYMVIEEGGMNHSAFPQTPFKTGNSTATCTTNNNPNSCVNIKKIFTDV

Usually pIC50 stands for −log10 of the IC50, conventionally taken in molar units. A lower pIC50 goes with a large IC50. For `CC[C@H](C)[C@H](NC(=O)[C@H](CCCNC(=N)N)NC(=O)[C@@H](NC(=O)[C@H](CO)NC(=O)CN)C(C)C)C(=O)N1CCC[C@H]1C(=O)N[C@H](C(=O)N[C@@H](CO)C(=O)N[C@H]1CSSC[C@@H]2NC(=O)[C@H](CCCCN)NC(=O)CNC(=O)[C@H](Cc3ccccc3)NC(=O)[C@H](CCCNC(=N)N)NC(=O)[C@H](CCSC)NC(=O)CNC(=O)[C@H](C)NC(=O)[C@H](CC(=O)O)NC(=O)[C@H](CCCCN)NC(=O)[C@@H]3CSSC[C@@H](C(=O)N[C@H](C(=O)N4CCC[C@H]4C(=O)N[C@@H](CCCCN)C(=O)O)[C@@H](C)O)NC(=O)[C@H](CC(=O)O)NC(=O)[C@H](CSSC[C@H](NC(=O)[C@H](CCC(N)=O)NC(=O)CNC(=O)[C@H](CO)NC(=O)[C@H](Cc4c[nH]cn4)NC(=O)[C@H](CCCCN)NC1=O)C(=O)N[C@@H](CC(C)C)C(=O)N[C@@H](CCCCN)C(=O)N1CCC[C@H]1C(=O)N3)NC(=O)[C@H](CCCCN)NC(=O)CNC(=O)[C@H](CC(N)=O)NC(=O)[C@H](CCSC)NC2=O)C(C)C` [SEQ ID NO: 6] (H-GSVRIPVSCKHSGQCLKPCKDAGMRFGKCMNGKCDCTPK-OH; disulfide 9-29, 15-34, 19-36), the “Activity on potassium channels” value in the series on panel of 20 ion channels is recorded as “active on a subset of potassium channels”. Further, the activity at 20 µM at Kv1.1 was below 50%; on Kv1.3 [1] (Kv1.3, peptide at 20 μM, percentage of control, 100% = no change, read-out: Ion channel activity (ion channel inhibition)), below 50%. Besides, at Kv1.3 [1] (Kv1.3, peptide at 0.2 μM, percentage of control, 100% = no change, read-out: Ion channel activity (ion channel inhibition)), the activity at 0.2 µM was below 80%. This compound also showed a pIC50 in series [2] below 6.00.
As to “GSNFKVEGACSKPCRKYCIDKGARNGKCINGRCHCYY [SEQ ID NO: 12]”, the Kv1.3 inhibition entry on Kv1.3 [1] (0.2 or 20 μM, FIG. 2) is “inhibit Kv1.3, consistent with these results”. Further, the “Kv1.3 inhibition, previously reported” value at Kv1.3 [3] is on record as “previously reported to inhibit Kv1.3”.
